Data on eight compounds can be found in PubChem BioAssay (NCI).

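Assay format: 96-well plates, 48-hour exposure. TGI marks complete inhibition of growth.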

Some test systems named below: TK-10 renal; RXF 393 renal; MALME-3M melanoma; EKVX NSCLC; HT29 colon; OVCAR-8 ovarian; NCI-H23 lung; CAKI-1 renal; SK-MEL-2 melanoma; SNB-75 CNS; HS 578T breast; HL-60(TB) leukemia; DU-145 prostate; BT-549 breast; UACC-257 melanoma; RPMI-8226 leukemia; MOLT-4 leukemia; NCI-H460 lung; KM12 colon.
Assay in all cases: NCI tumour cell line growth inhibition, 48 h

Regarding `COc1ccc(N=CN(C)C)c(C)c1`, the TGI with TK-10 renal is over 100 µM; with RXF 393 renal, 67.2 µM; with MALME-3M melanoma, 54 µM; in the assay with EKVX NSCLC, over 100 µM; in the assay with HT29 colon, 44.6 µM; in the assay with OVCAR-8 ovarian, 83.8 µM. The TGI is 7.23 µM with NCI-H23 lung; over 100 µM with CAKI-1 renal; 30.4 µM with SK-MEL-2 melanoma; 63.9 µM in the assay on SNB-75 CNS; 19.8 µM in the assay with HS 578T breast; 4.1 µM in the assay with HL-60(TB) leukemia. For the same compound, the TGI was 82 µM with DU-145 prostate; 58.2 µM with BT-549 breast; 9.95 µM with UACC-257 melanoma; over 100 µM in the assay on RPMI-8226 leukemia; 23.8 µM in the assay with MOLT-4 leukemia.
On to `CCOC(=O)c1ccc(N=c2oc3ccc(OC)cc3cc2-c2nc3ccccc3[nH]2)cc1`, for which the TGI in the assay with TK-10 renal is over 100 µM; in the assay with RXF 393 renal it was over 100 µM; in the assay with MALME-3M melanoma it was over 100 µM; with EKVX NSCLC, over 100 µM; in the assay on HT29 colon, over 100 µM; with OVCAR-8 ovarian, 43.2 µM. Moreover, the TGI is over 100 µM with NCI-H23 lung; over 100 µM with NCI-H460 lung; over 100 µM in the assay on CAKI-1 renal; over 100 µM with SK-MEL-2 melanoma; 65.2 µM in the assay on SNB-75 CNS; over 100 µM with KM12 colon. The TGI in the assay with HS 578T breast, in the assay on HL-60(TB) leukemia, with DU-145 prostate, with BT-549 breast, in the assay on UACC-257 melanoma and in the assay on RPMI-8226 leukemia was over 100 µM in each case. This compound gave a TGI in the assay with MOLT-4 leukemia of over 100 µM.
Take `CCOC(=O)c1cc(Br)c(-c2onc(C)c2Br)n1C`: the TGI in the assay on TK-10 renal was over 100 µM; in the assay on RXF 393 renal, 28.6 µM; in the assay with MALME-3M melanoma, over 100 µM; in the assay with EKVX NSCLC it was 85.6 µM; in the assay with OVCAR-8 ovarian, over 100 µM; in the assay with NCI-H23 lung it was over 100 µM. The TGI with NCI-H460 lung is over 100 µM; with CAKI-1 renal it was 45.4 µM; with SK-MEL-2 melanoma it was over 100 µM; in the assay with SNB-75 CNS, 53 µM; in the assay on KM12 colon, 69.5 µM; in the assay on HS 578T breast it was over 100 µM. Further, the TGI in the assay on HL-60(TB) leukemia is 27.5 µM; in the assay on DU-145 prostate, over 100 µM; in the assay on BT-549 breast, over 100 µM; in the assay on UACC-257 melanoma it was over 100 µM; in the assay on RPMI-8226 leukemia, over 100 µM; in the assay on MOLT-4 leukemia, 44.3 µM.
As to `N#CCc1nc(-c2cc3c(ccc4ccccc43)oc2=O)cs1`, the TGI in the assay on TK-10 renal was 38.9 µM; with RXF 393 renal, 74 µM; in the assay with MALME-3M melanoma, over 100 µM; in the assay with EKVX NSCLC, over 100 µM; with HT29 colon, over 100 µM; in the assay on OVCAR-8 ovarian it was over 100 µM. Further, the TGI in the assay with NCI-H460 lung is over 100 µM; with CAKI-1 renal, over 100 µM; in the assay with SK-MEL-2 melanoma, 72.4 µM; in the assay on SNB-75 CNS, 20.4 µM; in the assay on KM12 colon, over 100 µM; with HS 578T breast it was 63.4 µM. In addition, the TGI with HL-60(TB) leukemia is over 100 µM; in the assay with DU-145 prostate, over 100 µM; with BT-549 breast it was 31.5 µM; with UACC-257 melanoma, 75.7 µM; in the assay with RPMI-8226 leukemia, over 100 µM; in the assay on MOLT-4 leukemia, over 100 µM.
For `CC1c2cc(c3c(c2O)CN([C@@H](C)C2CCCCC2)CO3)C(C)c2cc(c3c(c2O)CN([C@@H](C)C2CCCCC2)CO3)C(C)c2cc(c3c(c2O)CN([C@@H](C)C2CCCCC2)CO3)C(C)c2cc1c1c(c2O)CN([C@@H](C)C2CCCCC2)CO1` (some centres undefined), the TGI is 3.19 µM with TK-10 renal; over 100 µM in the assay with RXF 393 renal; 2.98 µM in the assay with MALME-3M melanoma; 2.45 µM in the assay on EKVX NSCLC; 1.26 µM in the assay on HT29 colon; 2.4 µM in the assay with OVCAR-8 ovarian. Further, the TGI with NCI-H460 lung was 2.53 µM; in the assay on CAKI-1 renal, 2.95 µM; in the assay with SK-MEL-2 melanoma it was 6.2 µM; in the assay on SNB-75 CNS, 2.77 µM; with KM12 colon it was 2.15 µM; in the assay with HS 578T breast, 3.15 µM. Also, the TGI in the assay on HL-60(TB) leukemia worked out at 5.59 µM; in the assay with DU-145 prostate, 2.64 µM; with BT-549 breast, 3.49 µM; with UACC-257 melanoma it was 3.24 µM; with RPMI-8226 leukemia, 2.15 µM; in the assay on MOLT-4 leukemia, 9.63 µM.
In the case of `c1cc(C[S+]2CCCC2)sc1C[S+]1CCCC1`, the TGI in the assay with TK-10 renal, in the assay with RXF 393 renal, in the assay on MALME-3M melanoma, in the assay on EKVX NSCLC, with HT29 colon and in the assay on OVCAR-8 ovarian was over 100 µM in each case. In addition, the TGI with NCI-H23 lung, in the assay with NCI-H460 lung, in the assay on CAKI-1 renal, with SNB-75 CNS, with KM12 colon and in the assay with HS 578T breast was over 100 µM throughout. The TGI with HL-60(TB) leukemia, in the assay on DU-145 prostate, in the assay on BT-549 breast, in the assay with UACC-257 melanoma, in the assay on RPMI-8226 leukemia and with MOLT-4 leukemia was over 100 µM throughout.
On to `COC(=O)[C@H](COC(=O)/C=C/c1ccc(OC(C)=O)c(OC(C)=O)c1)NC(=O)/C=C/c1ccc(OC(C)=O)c(OC(C)=O)c1`, for which the TGI with RXF 393 renal is over 100 µM; in the assay on MALME-3M melanoma, 20.7 µM; in the assay on EKVX NSCLC it was 38.9 µM; in the assay on HT29 colon, 54 µM; in the assay on OVCAR-8 ovarian, 67.4 µM; with NCI-H23 lung, 47.6 µM. Besides, the TGI in the assay on NCI-H460 lung stood at 53.9 µM; in the assay on CAKI-1 renal, 35.1 µM; in the assay on SK-MEL-2 melanoma, 35.2 µM; in the assay with SNB-75 CNS, 30.1 µM; with KM12 colon, 36.6 µM; in the assay with HS 578T breast, 49.7 µM. In addition, the TGI in the assay on HL-60(TB) leukemia was over 100 µM; in the assay with DU-145 prostate, 29.4 µM; in the assay on BT-549 breast, 34.9 µM; in the assay with UACC-257 melanoma it was 42.1 µM; with RPMI-8226 leukemia, over 100 µM; with MOLT-4 leukemia it was over 100 µM.
`O=c1cc(-c2cccc(OCc3ccccc3)c2)[nH]c2cc3c(cc12)OCO3`: the TGI with TK-10 renal is 24.7 µM; in the assay with RXF 393 renal, 8.15 µM; with MALME-3M melanoma, over 100 µM; in the assay with EKVX NSCLC, over 100 µM; in the assay on HT29 colon it was over 97.3 µM; in the assay on OVCAR-8 ovarian it was 9.87 µM. Besides, the TGI in the assay on NCI-H23 lung was 15 µM; with NCI-H460 lung, 11.2 µM; with CAKI-1 renal, over 50.8 µM; in the assay with SK-MEL-2 melanoma, 5.88 µM; with KM12 colon, over 100 µM; in the assay on HS 578T breast, 3.02 µM. Besides, the TGI was 0.412 µM with HL-60(TB) leukemia; over 100 µM in the assay on DU-145 prostate; over 100 µM in the assay with BT-549 breast; over 100 µM in the assay with UACC-257 melanoma; 0.766 µM with RPMI-8226 leukemia; over 100 µM in the assay with MOLT-4 leukemia.
